Laboratory results taken from paper PMC5581245 (Electrophoresis, 2017).

Test: Retention of glycopeptides on reversed phase C18 nanoLC-MS
Type: physicochemical
Conditions: difference between glycoform with and without fucose; RP C18 nanoLC, gradient 3

Sequence	RRT difference introduced by fucose (RRT expressed as trx/trGlcNAc form)
VVLHPNYSQVDIGLIK [tri-antennary glycoform of VVLHPNYSQVDIGLIK]	0.00096
VVLHPNYSQVDIGLIK [tetra-antennary glycoform of VVLHPNYSQVDIGLIK]	0.00035
VVLHPNYSQVDIGLIK [bi-antennary glycoform of VVLHPNYSQVDIGLIK]	0.00204
